Source: PubChem BioAssay (NCI)
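Five compound concentrations were applied to cells in 96-well plates for 48 hours; endpoints were derived by simple linear interpolation of the resulting dose-response curve. TGI: total growth inhibition.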

Key:
Assay in all cases: growth of human tumour cells (NCI), 48 h
SNB-75 CNS = test system: SNB-75 CNS
SW-620 colon = test system: SW-620 colon
NCI-H522 lung = test system: NCI-H522 lung
A498 renal = test system: A498 renal
NCI-H23 lung = test system: NCI-H23 lung
SK-MEL-2 melanoma = test system: SK-MEL-2 melanoma
U251 CNS = test system: U251 CNS
NCI-H460 lung = test system: NCI-H460 lung
ACHN renal = test system: ACHN renal
SK-MEL-28 melanoma = test system: SK-MEL-28 melanoma
HCT-116 colon = test system: HCT-116 colon
HS 578T breast = test system: HS 578T breast
UACC-62 melanoma = test system: UACC-62 melanoma
MALME-3M melanoma = test system: MALME-3M melanoma
SR leukemia = test system: SR leukemia
KM12 colon = test system: KM12 colon
MDA-MB-231 breast = test system: MDA-MB-231 breast
SNB-19 CNS = test system: SNB-19 CNS
SF-539 CNS = test system: SF-539 CNS
DU-145 prostate = test system: DU-145 prostate
CCRF-CEM leukemia = test system: CCRF-CEM leukemia
HT29 colon = test system: HT29 colon
OVCAR-8 ovarian = test system: OVCAR-8 ovarian
OVCAR-3 ovarian = test system: OVCAR-3 ovarian
OVCAR-4 ovarian = test system: OVCAR-4 ovarian
UO-31 renal = test system: UO-31 renal
786-0 renal = test system: 786-0 renal
HCT-15 colon = test system: HCT-15 colon
EKVX NSCLC = test system: EKVX NSCLC
IGROV1 ovarian = test system: IGROV1 ovarian
MDA-MB-435 = test system: MDA-MB-435
TK-10 renal = test system: TK-10 renal
K-562 leukemia = test system: K-562 leukemia
MOLT-4 leukemia = test system: MOLT-4 leukemia
A549 NSCLC = test system: A549 NSCLC
SF-295 CNS = test system: SF-295 CNS
PC-3 prostate = test system: PC-3 prostate
SF-268 CNS = test system: SF-268 CNS
HCC-2998 colon = test system: HCC-2998 colon
SK-MEL-5 melanoma = test system: SK-MEL-5 melanoma
HL-60(TB) leukemia = test system: HL-60(TB) leukemia
COLO 205 colon = test system: COLO 205 colon
HOP-62 NSCLC = test system: HOP-62 NSCLC
BT-549 breast = test system: BT-549 breast
MDA-N = test system: MDA-N
M14 melanoma = test system: M14 melanoma
SK-OV-3 ovarian = test system: SK-OV-3 ovarian
LOX IMVI melanoma = test system: LOX IMVI melanoma
NCI/ADR-RES ovarian = test system: NCI/ADR-RES ovarian
CAKI-1 renal = test system: CAKI-1 renal
T-47D breast = test system: T-47D breast
RPMI-8226 leukemia = test system: RPMI-8226 leukemia
OVCAR-5 ovarian = test system: OVCAR-5 ovarian
SN12C renal = test system: SN12C renal
MCF7 breast = test system: MCF7 breast
RXF 393 renal = test system: RXF 393 renal
HOP-92 NSCLC = test system: HOP-92 NSCLC
UACC-257 melanoma = test system: UACC-257 melanoma
NCI-H226 lung = test system: NCI-H226 lung

Measured: TGI

CCCCCCCC(=O)NS(=O)(=O)c1ccccc1
not listed: OVCAR-5 ovarian | SN12C renal | MCF7 breast | RXF 393 renal | HOP-92 NSCLC | UACC-257 melanoma | NCI-H226 lung
> 100 µM: all other assays above

CCOC(=O)CON=c1c2ccccc2ccc2ccccc12
not listed: NCI-H522 lung | A498 renal
> 100 µM: all other assays above

O=C1C(CO)=C[C@@H](O)[C@H]2O[C@@H]12
36.3 µM: SN12C renal
65.4 µM: LOX IMVI melanoma
44.9 µM: MCF7 breast
78.6 µM: MDA-MB-435
53.4 µM: OVCAR-4 ovarian
not listed: SNB-19 CNS | SF-539 CNS | TK-10 renal | PC-3 prostate | HCC-2998 colon | RXF 393 renal | UACC-257 melanoma
> 100 µM: all other assays above

Cc1ccc(S(=O)(=O)NC(=O)NCC(N)=O)cc1
not listed: A498 renal | SR leukemia | OVCAR-3 ovarian | EKVX NSCLC | MDA-MB-435 | HCC-2998 colon | CAKI-1 renal | NCI-H226 lung
> 100 µM: all other assays above
